In ChEMBL document CHEMBL1136884, “Antiplasmodial and antitrypanosomal activity of bicyclic amides and esters of dialkylamino acids” (Bioorg Med Chem, 2009) one finds IC50, selectivity ratio and Activity data, which are given here for 33 molecules.

Active and inactive are the calls of the source. The calls are words filed in the database; no cut-off is given here.

Data set [1] relates to Trypanosoma brucei rhodesiense. In words: Antitrypanosomal activity against Trypanosoma brucei rhodesiense after 72 hrs by alamar blue assay. In kind it is functional, organism-based. (The colour change of resazurin is a common sign of viable cells or microbes.)
Data set [2] in a line: Selectivity index, ratio of IC50 for rat L6 cells to IC50 for Plasmodium falciparum K1. The data set is classed as toxicity, cell-based. The settings on record: L6 cells (versus Plasmodium falciparum K1), read-out: Ratio IC50.
Another data set deals with Plasmodium falciparum. In words: Antimalarial activity against chloroquine and pyrimethamine-resistant Plasmodium falciparum K1 after 48 hrs as [3H]hypoxanthine uptake. In kind it is functional, organism-based.
A further data set concerns L6. In words: Cytotoxicity against rat L6 cells after 72 hrs by alamar blue assay. The settings on record: L6, 72 h. The data set is classed as cell-based.
A short description of data set [3]: Selectivity index, ratio of IC50 for rat L6 cells to IC50 for Trypanosoma brucei rhodesiense. The data set is classed as toxicity, cell-based. To be noted: L6 cells (versus Trypanosoma brucei rhodesiense), read-out: Ratio IC50.
Data set [4] deals with Plasmodium berghei. Briefly: Antiplasmodial activity against Plasmodium berghei ANKA infected Fu albino mice (Mus musculus) at 0.01 mL/kg intraperitoneal dose at 24 hrs as parasitaemia per 1000 erythrocytes. In kind it is functional.
The test system of data set [5] is Plasmodium berghei. Briefly: Antiplasmodial activity as increased MST against Plasmodium berghei ANKA infected Fu albino mice (Mus musculus) at 0.01 mL/kg intraperitoneal dose after 24 hrs. In kind it is functional, organism-based.

In general, IC50 refers to the point on the concentration scale where inhibition reaches its midpoint. As to `CN(C)C12CC(OC(=O)CN3CCCCC3)C(C(c3ccccc3)C1)C(c1ccccc1)C2` (centres undefined), the IC50 is 1990 nM in data set [1], 520 nM with Plasmodium falciparum and 29300 nM in the data set on L6. The selectivity ratio in data set [2] was 56.3; in data set [3] it was 14.7.

As for `c1ccc(C2CC3(N4CCCC4)CCNC2C(c2ccccc2)C3)cc1` (centres undefined), the IC50 in data set [1] turned out to be 1160 nM; in the data set with Plasmodium falciparum, 560 nM; in the data set on L6 it was 120000 nM. Further, the values for the selectivity ratio in data set [2] and in data set [3] were 215 and 104, respectively.

As for `O=C(CN1CCCCC1)OC1CC2(N3CCCC3)CC(c3ccccc3)C1C(c1ccccc1)C2` (centres undefined), the IC50 in data set [1] worked out at 370 nM; in the data set with Plasmodium falciparum, 370 nM; in the data set on L6, 14200 nM. The selectivity ratio in data set [2] and in data set [3] was 38.4 in each case.

Consider `CN(C)C12CCNC(C(c3ccccc3)C1)C(c1ccccc1)C2` (centres undefined), for which the half-maximal inhibitory concentration (IC50) in data set [1] was 600 nM; in the data set on Plasmodium falciparum, 280 nM; in the data set with L6, 109000 nM. For the same molecule, the selectivity ratio in data set [2] is 389; in data set [3] it was 181.

In turn, `CCN(CC)CCCC(C)Nc1ccnc2cc(Cl)ccc12` (centres undefined) [CHLOROQUINE] registered an IC50 with L6 of 188000 nM.

For the molecule `Nc1nc(N)nc(Nc2ccc([As]3SCC(CO)S3)cc2)n1` (centres undefined) [MELARSOPROL], the IC50 in data set [1] stood at 3.9 nM; with L6, 7780 nM. Besides, the selectivity ratio in data set [3] is 2000.

Consider `CN1CCN(CC(=O)NC2CC3(N(C)C)CC(c4ccccc4)C2C(c2ccccc2)C3)CC1` (racemic), for which the 50% inhibitory concentration (IC50) turned out to be 1600 nM in data set [1], 2580 nM in the data set with Plasmodium falciparum and 66200 nM in the data set with L6. Further, the selectivity ratio in data set [2] stood at 25.7; in data set [3], 41.4.

In the case of `CN1CCN(CC(=O)NC2CC3(N4CCCC4)CC(c4ccccc4)C2C(c2ccccc2)C3)CC1` (racemic), the IC50 in data set [1] is 1130 nM; in the data set with Plasmodium falciparum it was 820 nM; in the data set with L6, 50200 nM. The selectivity ratio in data set [2] worked out at 61.3; in data set [3] it was 44.5.

In the case of `CN1CCN(CC(=O)OC2CC3(N4CCCCC4)CC(c4ccccc4)C2C(c2ccccc2)C3)CC1` (racemic), the IC50 came out at 870 nM in data set [1], 106 nM in the data set on Plasmodium falciparum and 29500 nM in the data set with L6. The values for the selectivity ratio in data set [2] and in data set [3] were 278 and 33.9, respectively. The Activity in the data set with Plasmodium berghei [4] was 15%. Also, the result in the data set on Plasmodium berghei [5] was inactive.

As for `CN1CCN(CC(=O)NC2CC3(N4CCCCC4)CC(c4ccccc4)C2C(c2ccccc2)C3)CC1` (racemic), the 50% inhibitory concentration (IC50) in data set [1] is 690 nM; in the data set with Plasmodium falciparum, 380 nM; in the data set with L6, 57500 nM. Moreover, the values for the selectivity ratio in data set [2] and in data set [3] were 151 and 83.4, respectively.

For the molecule `CN1CCN(CCC(=O)N2CCC3(N4CCCCC4)CC(c4ccccc4)C2C(c2ccccc2)C3)CC1` (racemic), the IC50 in data set [1] came out at 30800 nM; in the data set on Plasmodium falciparum, 600 nM; in the data set on L6, 120000 nM. In addition, the selectivity ratio in data set [2] is 200; in data set [3], 3.89.

For `c1ccc(C2CC3(N4CCCCC4)CCNC2C(c2ccccc2)C3)cc1` (centres undefined), the IC50 in data set [1] is 6570 nM; in the data set on Plasmodium falciparum it was 640 nM; in the data set with L6 it was 89700 nM. Moreover, the selectivity ratio amounted to 140 in data set [2] and 13.7 in data set [3].

As for `CN1CCN(CC(=O)N2CCC3(N4CCCCC4)CC(c4ccccc4)C2C(c2ccccc2)C3)CC1` (racemic), the IC50 in data set [1] was determined as 92000 nM; in the data set with Plasmodium falciparum, 620 nM; in the data set with L6, 177000 nM. For the same molecule, the selectivity ratio stood at 286 in data set [2] and 1.93 in data set [3].

On to `CN1CCN(CCC(=O)N2CCC3(N4CCCC4)CC(c4ccccc4)C2C(c2ccccc2)C3)CC1` (racemic), for which the IC50 is 31900 nM in data set [1], 900 nM in the data set with Plasmodium falciparum and 75400 nM in the data set with L6. Also, the selectivity ratio in data set [2] was 83.8; in data set [3], 2.36.

Regarding `NCC(=O)OC1CC2(N3CCCC3)CC(c3ccccc3)C1C(c1ccccc1)C2` (centres undefined), the figures for the 50% inhibitory concentration (IC50) (in data set [1]; in the data set on Plasmodium falciparum; in the data set on L6) were 230 nM, 700 nM and 42900 nM, respectively. The selectivity ratio in data set [2] was found to be 61.3; in data set [3], 187.

`C[C@@H]1CC[C@H]2[C@@H](C)C(=O)O[C@@H]3O[C@@]4(C)CC[C@@H]1[C@]32OO4` [ARTEMISININ]: the selectivity ratio in data set [2] came to 70400. For the same molecule, the figures for the 50% inhibitory concentration (IC50) in the data set with Plasmodium falciparum and in the data set on L6 were 6.4 nM and 450000 nM, respectively.

Regarding `NC1CC2(N3CCCC3)CC(c3ccccc3)C1C(c1ccccc1)C2` (centres undefined), the IC50 turned out to be 410 nM in data set [1], 650 nM in the data set on Plasmodium falciparum and 38100 nM in the data set with L6. Moreover, the selectivity ratio is 58.6 in data set [2] and 92.9 in data set [3].

For `CN1CCN(CCC(=O)NC2CC3(N4CCCC4)CC(c4ccccc4)C2C(c2ccccc2)C3)CC1` (racemic), the IC50 in data set [1] is 4150 nM; in the data set with Plasmodium falciparum, 2080 nM; in the data set with L6 it was 86700 nM. In addition, the values for the selectivity ratio in data set [2] and in data set [3] were 41.7 and 20.9, respectively.

Regarding `CCN(CC)CC(=O)OC1CC2(N3CCCCC3)CC(c3ccccc3)C1C(c1ccccc1)C2` (centres undefined), the IC50 is 560 nM in data set [1], 250 nM with Plasmodium falciparum and 23900 nM in the data set with L6. Further, the results for the selectivity ratio in data set [2] and in data set [3] were 95.7 and 42.7, respectively.

`CN1CCN(CC(=O)OC2CC3(N(C)C)CC(c4ccccc4)C2C(c2ccccc2)C3)CC1` (racemic): the IC50 worked out at 130 nM in data set [1], 350 nM in the data set on Plasmodium falciparum and 39900 nM with L6. The selectivity ratio in data set [2] is 114; in data set [3], 307.

Consider `CN1CCN(CC(=O)N2CCC3(N4CCCC4)CC(c4ccccc4)C2C(c2ccccc2)C3)CC1` (racemic), for which the 50% inhibitory concentration (IC50) in data set [1] was 41100 nM; with Plasmodium falciparum it was 830 nM; in the data set with L6 it was 69100 nM. For the same molecule, the selectivity ratio was 83.2 in data set [2] and 1.68 in data set [3].

As for `O=C(CN1CCCC1)OC1CC2(N3CCCCC3)CC(c3ccccc3)C1C(c1ccccc1)C2` (centres undefined), the IC50 is 320 nM in data set [1], 470 nM in the data set on Plasmodium falciparum and 16400 nM in the data set with L6. Further, the selectivity ratio worked out at 34.9 in data set [2] and 51.2 in data set [3].

On to `CN1CCN(CCC(=O)N2CCC3(N(C)C)CC(c4ccccc4)C2C(c2ccccc2)C3)CC1` (racemic), for which the IC50 in data set [1] was 28200 nM; in the data set with Plasmodium falciparum, 1740 nM; in the data set with L6, 128000 nM. In addition, the selectivity ratio amounted to 73.5 in data set [2] and 4.52 in data set [3].

For `CN1CCN(CC(=O)N2CCC3(N(C)C)CC(c4ccccc4)C2C(c2ccccc2)C3)CC1` (racemic), the figures for the IC50 (in data set [1]; in the data set with Plasmodium falciparum; in the data set with L6) were 45800 nM, 2370 nM and 195000 nM, respectively. Besides, the selectivity ratio in data set [2] was found to be 82.4; in data set [3], 4.27.

`O=C(CN1CCCCC1)OC1CC2(N3CCCCC3)CC(c3ccccc3)C1C(c1ccccc1)C2` (centres undefined): the IC50 in data set [1] was determined as 870 nM; with Plasmodium falciparum, 180 nM; in the data set on L6, 60400 nM. In addition, the figures for the selectivity ratio in data set [2] and in data set [3] were 336 and 69.4, respectively.

Turning to `CN1CCN(CC(=O)OC2CC3(N4CCCC4)CC(c4ccccc4)C2C(c2ccccc2)C3)CC1` (racemic), the figures for the half-maximal inhibitory concentration (IC50) (in data set [1]; in the data set on Plasmodium falciparum; in the data set with L6) were 140 nM, 540 nM and 24600 nM, respectively. The selectivity ratio amounted to 45.5 in data set [2] and 176 in data set [3].

In the case of `CN1CCN(CCC(=O)NC2CC3(N(C)C)CC(c4ccccc4)C2C(c2ccccc2)C3)CC1` (racemic), the IC50 turned out to be 2740 nM in data set [1], 4190 nM in the data set on Plasmodium falciparum and 95000 nM in the data set with L6. Besides, the selectivity ratio turned out to be 22.7 in data set [2] and 34.7 in data set [3].

With `CCN(CC)CC(=O)OC1CC2(N3CCCC3)CC(c3ccccc3)C1C(c1ccccc1)C2` (centres undefined), the figures for the IC50 (in data set [1]; with Plasmodium falciparum; in the data set with L6) were 720 nM, 200 nM and 49000 nM, respectively. The results for the selectivity ratio in data set [2] and in data set [3] were 245 and 68.1, respectively.

In the case of `CN(C)C12CC(OC(=O)CN3CCCC3)C(C(c3ccccc3)C1)C(c1ccccc1)C2` (centres undefined), the IC50 in data set [1] is 210 nM; with Plasmodium falciparum, 710 nM; in the data set with L6, 32700 nM. Moreover, the selectivity ratio in data set [2] was 46; in data set [3], 156.

As to `CCN(CC)CC(=O)OC1CC2(N(C)C)CC(c3ccccc3)C1C(c1ccccc1)C2` (centres undefined), the IC50 in data set [1] amounted to 610 nM; with Plasmodium falciparum, 2720 nM; in the data set on L6, 30100 nM. Besides, the selectivity ratio in data set [2] was determined as 11.1; in data set [3], 49.4.

For `NC1CC2(N3CCCCC3)CC(c3ccccc3)C1C(c1ccccc1)C2` (centres undefined), the IC50 in data set [1] came out at 270 nM; in the data set with Plasmodium falciparum it was 550 nM; in the data set with L6, 35000 nM. The selectivity ratio turned out to be 63.5 in data set [2] and 129 in data set [3].

As for `CN1CCN(CCC(=O)NC2CC3(N4CCCCC4)CC(c4ccccc4)C2C(c2ccccc2)C3)CC1` (racemic), the IC50 in data set [1] stood at 860 nM; in the data set with Plasmodium falciparum, 280 nM; in the data set on L6, 61100 nM. The selectivity ratio in data set [2] worked out at 218; in data set [3], 71.

As to `CN(C)C12CC(N)C(C(c3ccccc3)C1)C(c1ccccc1)C2` (centres undefined), the IC50 turned out to be 350 nM in data set [1], 610 nM in the data set with Plasmodium falciparum and 40900 nM in the data set on L6. Moreover, the selectivity ratio was 67 in data set [2] and 117 in data set [3].
